Laboratory results reported in ChEMBL document CHEMBL1156106 (J Med Chem, 2009).

Columns and labels:
[1] = target: Sodium-dependent noradrenaline transporter (Homo sapiens, UniProt P23975); test: Displacement of [125I]RTI55 from cloned human NET expressed in HEK293 cells; format: cell-based
[2] = target: T1, Sodium-dependent serotonin transporter (Homo sapiens, UniProt P31645); test: biochemical; format: cell-based, HEK293
Mus musculus [3] = test: Antidepressant activity in ip dosed mouse assessed as duration of locomotor activity; format: functional
Mus musculus [4] = test: Antidepressant activity in ip dosed mouse assessed as stimulation of locomotor activity relative to cocaine; format: functional
Mus musculus [5] = test: Antidepressant activity in ip dosed mouse assessed as time to reach peak stimulation of locomotor activity; format: functional
[6] = target: Sodium-dependent dopamine transporter (Homo sapiens, UniProt Q01959); test: Displacement of [125I]RTI55 from cloned human DAT expressed in HEK293 cells; format: cell-based
Sodium-dependent dopamine transporter, sequence (Q01959 whole entry): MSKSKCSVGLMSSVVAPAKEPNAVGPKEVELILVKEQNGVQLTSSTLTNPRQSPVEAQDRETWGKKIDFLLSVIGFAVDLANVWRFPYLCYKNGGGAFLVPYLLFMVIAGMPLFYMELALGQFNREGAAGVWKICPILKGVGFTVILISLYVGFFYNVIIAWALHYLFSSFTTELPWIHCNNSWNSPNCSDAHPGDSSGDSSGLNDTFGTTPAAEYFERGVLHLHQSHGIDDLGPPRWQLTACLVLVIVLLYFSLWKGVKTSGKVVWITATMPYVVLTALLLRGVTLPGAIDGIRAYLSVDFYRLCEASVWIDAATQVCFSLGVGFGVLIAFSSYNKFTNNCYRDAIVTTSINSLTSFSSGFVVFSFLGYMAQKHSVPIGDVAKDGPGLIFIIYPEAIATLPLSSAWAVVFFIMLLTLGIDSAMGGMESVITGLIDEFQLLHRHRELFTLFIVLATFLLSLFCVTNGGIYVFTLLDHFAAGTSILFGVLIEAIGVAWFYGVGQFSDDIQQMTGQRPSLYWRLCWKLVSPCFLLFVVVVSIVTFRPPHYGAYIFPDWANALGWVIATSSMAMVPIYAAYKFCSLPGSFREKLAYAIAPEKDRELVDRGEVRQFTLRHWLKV

Rattus norvegicus [7] = test: Effect on behavioural activity in rat assessed as cocaine-induced lever response at 100 mg/kg, ip pretreated with cocaine for 45 mins by drug-discrimination studies; format: functional; settings: route intraperitoneal
Rattus norvegicus [8] = test: Effect on behavioural activity in rat assessed as cocaine-induced lever response at 10 mg/kg, ip pretreated with cocaine for 45 mins by drug-discrimination studies; format: functional; settings: route intraperitoneal
Mus musculus [9] = test: Antidepressant activity in ip dosed mouse assessed as stimulation of locomotor activity; format: functional
Rattus norvegicus [10] = test: Effect on behavioural activity in rat assessed as cocaine-induced lever response at 50 mg/kg, ip pretreated with cocaine for 45 mins by drug-discrimination studies; format: functional; settings: route intraperitoneal
Rattus norvegicus [11] = test: Effect on behavioural activity in rat assessed as cocaine-induced lever response at 25 mg/kg, ip pretreated with cocaine for 45 mins by drug-discrimination studies; format: functional; settings: route intraperitoneal
[12] = target: T1, Sodium-dependent serotonin transporter; test: Inhibition of [3H]serotonin reuptake at human SERT expressed in HEK293 cells; format: cell-based
Rattus norvegicus [13] = test: Effect on behavioural activity in rat assessed as cocaine-induced lever response at 25 mg/kg, ip pretreated with cocaine for 240 mins by drug-discrimination studies; format: functional; settings: route intraperitoneal
Rattus norvegicus [14] = test: Effect on behavioural activity in rat assessed as cocaine-induced lever response at 50 mg/kg, ip pretreated with cocaine for 240 mins by drug-discrimination studies; format: functional; settings: route intraperitoneal
Rattus norvegicus [15] = test: Effect on behavioural activity in rat assessed as cocaine-induced lever response at 100 mg/kg, ip pretreated with cocaine for 50 mins by drug-discrimination studies; format: functional; settings: route intraperitoneal
Rattus norvegicus [16] = test: Effect on behavioural activity in rat assessed as cocaine-induced lever response at 50 mg/kg, ip pretreated with cocaine for 50 mins by drug-discrimination studies; format: functional; settings: route intraperitoneal
Rattus norvegicus [17] = test: Effect on behavioural activity in rat assessed as cocaine-induced lever response at 100 mg/kg, ip pretreated with cocaine for 80 mins by drug-discrimination studies; format: functional; settings: route intraperitoneal
Rattus norvegicus [18] = test: Effect on behavioural activity in rat assessed as cocaine-induced lever response at 25 mg/kg, ip pretreated with cocaine for 80 mins by drug-discrimination studies; format: functional; settings: route intraperitoneal
Rattus norvegicus [19] = test: Effect on behavioural activity in rat assessed as cocaine-induced lever response at 10 mg/kg, ip pretreated with cocaine for 80 mins by drug-discrimination studies; format: functional; settings: route intraperitoneal
Rattus norvegicus [20] = test: Effect on behavioural activity in rat assessed as cocaine-induced lever response at 50 mg/kg, ip pretreated with cocaine for 80 mins by drug-discrimination studies; format: functional; settings: route intraperitoneal
Rattus norvegicus [21] = test: Effect on behavioural activity in rat assessed as cocaine-induced lever response at 25 mg/kg, po pretreated with cocaine for 90 mins by drug-discrimination studies; format: functional
Rattus norvegicus [22] = test: Effect on behavioural activity in rat assessed as cocaine-induced lever response at 50 mg/kg, ip pretreated with cocaine for 30 mins by drug-discrimination studies; format: functional; settings: route intraperitoneal
Rattus norvegicus [23] = test: Effect on behavioural activity in rat assessed as cocaine-induced lever response at 2.5 mg/kg, po pretreated with cocaine for 180 mins by drug-discrimination studies; format: functional
Rattus norvegicus [24] = test: Effect on behavioural activity in rat assessed as cocaine-induced lever response at 25 mg/kg, po pretreated with cocaine for 180 mins by drug-discrimination studies; format: functional
Rattus norvegicus [25] = test: Effect on behavioural activity in rat assessed as cocaine-induced lever response at 25 mg/kg, po pretreated with cocaine for 360 mins by drug-discrimination studies; format: functional
Rattus norvegicus [26] = test: Effect on behavioural activity in rat assessed as cocaine-induced lever response at 25 mg/kg, po pretreated with cocaine for 45 mins by drug-discrimination studies; format: functional
Rattus norvegicus [27] = test: Effect on behavioural activity in rat assessed as cocaine-induced lever response at 2.5 mg/kg, po pretreated with cocaine for 45 mins by drug-discrimination studies; format: functional
Rattus norvegicus [28] = test: Effect on behavioural activity in rat assessed as cocaine-induced lever response at 50 mg/kg, po pretreated with cocaine for 360 mins by drug-discrimination studies; format: functional
Rattus norvegicus [29] = test: Effect on behavioural activity in rat assessed as cocaine-induced lever response at 100 mg/kg, po pretreated with cocaine for 45 mins by drug-discrimination studies; format: functional
Rattus norvegicus [30] = test: Effect on behavioural activity in rat assessed as cocaine-induced lever response at 10 mg/kg, ip pretreated with cocaine for 30 mins by drug-discrimination studies; format: functional; settings: route intraperitoneal
Rattus norvegicus [31] = test: Effect on behavioural activity in rat assessed as cocaine-induced lever response at 50 mg/kg, po pretreated with cocaine for 45 mins by drug-discrimination studies; format: functional
Rattus norvegicus [32] = test: Effect on behavioural activity in rat assessed as cocaine-induced lever response at 5 mg/kg, po pretreated with cocaine for 180 mins by drug-discrimination studies; format: functional
Rattus norvegicus [33] = test: Effect on behavioural activity in rat assessed as cocaine-induced lever response at 2.5 mg/kg, po pretreated with cocaine for 90 mins by drug-discrimination studies; format: functional
Rattus norvegicus [34] = test: Effect on behavioural activity in rat assessed as cocaine-induced lever response at 50 mg/kg, po pretreated with cocaine for 180 mins by drug-discrimination studies; format: functional
Rattus norvegicus [35] = test: Effect on behavioural activity in rat assessed as cocaine-induced lever response at 2.5 mg/kg, ip pretreated with cocaine for 30 mins by drug-discrimination studies; format: functional; settings: route intraperitoneal
Rattus norvegicus [36] = test: Effect on behavioural activity in rat assessed as cocaine-induced lever response at 2.5 mg/kg, po pretreated with cocaine for 360 mins by drug-discrimination studies; format: functional
Rattus norvegicus [37] = test: Effect on behavioural activity in po dosed rat assessed as cocaine-induced lever response pretreated with cocaine by drug-discrimination studies; format: functional
Rattus norvegicus [38] = test: Effect on behavioural activity in rat assessed as cocaine-induced lever response at 50 mg/kg, po pretreated with cocaine for 90 mins by drug-discrimination studies; format: functional
Rattus norvegicus [39] = test: Effect on behavioural activity in rat assessed as cocaine-induced lever response at 10 mg/kg, po pretreated with cocaine for 360 mins by drug-discrimination studies; format: functional
Rattus norvegicus [40] = test: Effect on behavioural activity in rat assessed as cocaine-induced lever response at 5 mg/kg, po pretreated with cocaine for 45 mins by drug-discrimination studies; format: functional
Rattus norvegicus [41] = test: Effect on behavioural activity in rat assessed as cocaine-induced lever response at 5 mg/kg, po pretreated with cocaine for 90 mins by drug-discrimination studies; format: functional
Rattus norvegicus [42] = test: Effect on behavioural activity in rat assessed as cocaine-induced lever response at 100 mg/kg, po pretreated with cocaine for 90 mins by drug-discrimination studies; format: functional
Rattus norvegicus [43] = test: Effect on behavioural activity in rat assessed as cocaine-induced lever response at 10 mg/kg, po pretreated with cocaine for 180 mins by drug-discrimination studies; format: functional
Rattus norvegicus [44] = test: Effect on behavioural activity in ip dosed rat assessed as cocaine-induced lever response pretreated with cocaine by drug-discrimination studies; format: functional
Rattus norvegicus [45] = test: Effect on behavioural activity in rat assessed as cocaine-induced lever response at 10 mg/kg, po pretreated with cocaine for 45 mins by drug-discrimination studies; format: functional
Rattus norvegicus [46] = test: Effect on behavioural activity in rat assessed as cocaine-induced lever response at 10 mg/kg, po pretreated with cocaine for 90 mins by drug-discrimination studies; format: functional
Rattus norvegicus [47] = test: Effect on behavioural activity in rat assessed as cocaine-induced lever response at 5 mg/kg, po pretreated with cocaine for 360 mins by drug-discrimination studies; format: functional
Rattus norvegicus [48] = test: Effect on behavioural activity in rat assessed as cocaine-induced lever response at 100 mg/kg, po pretreated with cocaine for 360 mins by drug-discrimination studies; format: functional
Rattus norvegicus [49] = test: Effect on behavioural activity in rat assessed as cocaine-induced lever response at 100 mg/kg, po pretreated with cocaine for 180 mins by drug-discrimination studies; format: functional

T1 sequence (P31645 whole entry): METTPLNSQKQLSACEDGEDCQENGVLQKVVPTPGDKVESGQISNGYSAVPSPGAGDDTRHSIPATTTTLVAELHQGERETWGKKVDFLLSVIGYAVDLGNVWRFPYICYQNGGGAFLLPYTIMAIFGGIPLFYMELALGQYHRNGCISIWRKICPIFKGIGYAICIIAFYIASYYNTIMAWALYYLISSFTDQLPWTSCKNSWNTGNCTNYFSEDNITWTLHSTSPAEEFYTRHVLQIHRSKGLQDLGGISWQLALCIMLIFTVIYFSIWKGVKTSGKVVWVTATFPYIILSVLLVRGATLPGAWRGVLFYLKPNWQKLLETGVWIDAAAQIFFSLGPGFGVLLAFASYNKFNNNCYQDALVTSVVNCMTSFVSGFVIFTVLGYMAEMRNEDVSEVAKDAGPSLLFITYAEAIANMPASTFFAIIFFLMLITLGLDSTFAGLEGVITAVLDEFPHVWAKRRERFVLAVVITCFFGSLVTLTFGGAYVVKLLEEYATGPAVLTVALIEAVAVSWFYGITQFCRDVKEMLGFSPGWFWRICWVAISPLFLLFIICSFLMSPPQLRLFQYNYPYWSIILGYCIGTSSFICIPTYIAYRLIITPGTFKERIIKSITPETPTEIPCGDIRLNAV
Sodium-dependent noradrenaline transporter, sequence (P23975 whole entry): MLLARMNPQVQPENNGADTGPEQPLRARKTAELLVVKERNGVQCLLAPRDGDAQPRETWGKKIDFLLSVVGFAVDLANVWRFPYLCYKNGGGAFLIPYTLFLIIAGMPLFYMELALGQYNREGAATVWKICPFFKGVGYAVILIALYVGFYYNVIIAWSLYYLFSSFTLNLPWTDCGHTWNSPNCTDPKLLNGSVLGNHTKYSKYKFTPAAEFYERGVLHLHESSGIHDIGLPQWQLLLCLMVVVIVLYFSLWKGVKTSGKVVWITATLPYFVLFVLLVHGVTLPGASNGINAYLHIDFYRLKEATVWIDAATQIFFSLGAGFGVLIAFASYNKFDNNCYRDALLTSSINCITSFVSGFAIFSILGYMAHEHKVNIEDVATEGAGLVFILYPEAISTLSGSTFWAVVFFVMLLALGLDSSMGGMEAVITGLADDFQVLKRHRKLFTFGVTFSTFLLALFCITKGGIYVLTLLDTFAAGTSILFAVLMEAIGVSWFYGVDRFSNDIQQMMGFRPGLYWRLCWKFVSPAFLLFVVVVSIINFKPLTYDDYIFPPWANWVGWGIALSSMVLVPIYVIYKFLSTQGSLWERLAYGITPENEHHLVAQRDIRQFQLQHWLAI

Question: CC(NC(C)(C)C)C(=O)c1ccc(F)c(F)c1 (configuration not stated) was tested. Which Ki [1] did it give?
Answer: > 10 µM

Question: And the Ki [2]?
Answer: > 10 µM

Question: And the Time (Mus musculus [3])?
Answer: 60 min

Question: And the Activity (Mus musculus [4])?
Answer: 58%

Question: What about the “Time to peak locomotor stimulation” value (Mus musculus [5]) of the same molecule?
Answer: 10 min

Question: And the Ki [6]?
Answer: > 10 µM

Question: And the Activity (Rattus norvegicus [7])?
Answer: 63.9%

Question: What about the Activity (Rattus norvegicus [8]) of the same molecule?
Answer: 1.7%

Question: What does the source list for CCCCCC(NC(C)(C)C)C(=O)c1cccc(Cl)c1 (configuration not stated)?
Answer: ED50 (Mus musculus [9]): 12.9 mg/kg; Activity (Rattus norvegicus [10]): 50.9%; Ki [2]: > 10 µM; Time (Mus musculus [3]): 280 min; Activity (Mus musculus [4]): 90%; Time to peak locomotor stimulation (Mus musculus [5]): 60 min; Activity (Rattus norvegicus [11]): 1%

Question: Which results are given for CC(NC(C)(C)C)C(=O)c1ccc(Cl)c(Cl)c1 (configuration not stated)?
Answer: ED50 (Mus musculus [9]): 26.9 mg/kg; IC50 [12]: > 10 µM; Time (Mus musculus [3]): 140 min; Activity (Mus musculus [4]): 61%; Time to peak locomotor stimulation (Mus musculus [5]): 270 min; Activity (Rattus norvegicus [13]): 16.7%; Activity (Rattus norvegicus [14]): 22.4%

Question: What does the source list for Cc1cc(C(=O)C(C)NC(C)(C)C)ccc1Br (configuration not stated)?
Answer: ED50 (Mus musculus [9]): 12.6 mg/kg; Time (Mus musculus [3]): 240 min; Activity (Mus musculus [4]): 36%; Time to peak locomotor stimulation (Mus musculus [5]): 50 min; Activity (Rattus norvegicus [15]): 66.9%; Activity (Rattus norvegicus [16]): 16.7%

Question: What does the source list for CC(NC(C)(C)C)C(=O)c1ccc(Br)cc1 (configuration not stated)?
Answer: ED50 (Mus musculus [9]): 29.5 mg/kg; Ki [1]: > 10 µM; Time (Mus musculus [3]): 160 min; Activity (Rattus norvegicus [17]): 0.5%; Activity (Mus musculus [4]): 54%; Time to peak locomotor stimulation (Mus musculus [5]): 140 min; Activity (Rattus norvegicus [18]): 16.7%; Activity (Rattus norvegicus [19]): 1.7%; Activity (Rattus norvegicus [20]): 20%

Question: How did the Activity (Rattus norvegicus [21]) turn out when CC(NC(C)(C)C)C(=O)c1cc(F)cc(F)c1 (configuration not stated) was run?
Answer: 25%

Question: And the Activity (Rattus norvegicus [22])?
Answer: 83.3%

Question: What about the Activity (Rattus norvegicus [23]) of the same molecule?
Answer: 0%

Question: What about the Activity (Rattus norvegicus [24]) of the same molecule?
Answer: 0%

Question: What about the Activity (Rattus norvegicus [25]) of the same molecule?
Answer: 7%

Question: And the Activity (Rattus norvegicus [26])?
Answer: 4%

Question: And the Activity (Rattus norvegicus [27])?
Answer: 0%

Question: And the ED50 (Mus musculus [9])?
Answer: 35 mg/kg

Question: And the Activity (Rattus norvegicus [28])?
Answer: 0%

Question: What about the Activity (Rattus norvegicus [29]) of the same molecule?
Answer: 18%

Question: And the Activity (Rattus norvegicus [30])?
Answer: 16.7%

Question: What about the Activity (Rattus norvegicus [31]) of the same molecule?
Answer: 67%

Question: What about the Ki [1] of the same molecule?
Answer: > 10 µM

Question: And the Activity (Rattus norvegicus [32])?
Answer: 0%

Question: And the Activity (Rattus norvegicus [33])?
Answer: 20%

Question: And the Ki [2]?
Answer: > 10 µM

Question: And the Activity (Rattus norvegicus [34])?
Answer: 20%

Question: What about the Activity (Rattus norvegicus [35]) of the same molecule?
Answer: 0%

Question: What about the Activity (Rattus norvegicus [36]) of the same molecule?
Answer: 0%

Question: What about the ED50 (Rattus norvegicus [37]) of the same molecule?
Answer: 41.5 mg/kg

Question: And the Time (Mus musculus [3])?
Answer: 280 min

Question: What about the Activity (Mus musculus [4]) of the same molecule?
Answer: 84%

Question: And the Activity (Rattus norvegicus [38])?
Answer: 58%

Question: And the Activity (Rattus norvegicus [39])?
Answer: 3%

Question: What about the “Time to peak locomotor stimulation” value (Mus musculus [5]) of the same molecule?
Answer: 0 min

Question: And the Activity (Rattus norvegicus [40])?
Answer: 31%

Question: What about the Activity (Rattus norvegicus [41]) of the same molecule?
Answer: 7%

Question: What about the Activity (Rattus norvegicus [42]) of the same molecule?
Answer: 84%

Question: What about the Activity (Rattus norvegicus [43]) of the same molecule?
Answer: 0%

Question: And the ED50 (Rattus norvegicus [44])?
Answer: 7.8 mg/kg

Question: And the Activity (Rattus norvegicus [45])?
Answer: 0%

Question: And the Activity (Rattus norvegicus [46])?
Answer: 33%

Question: What about the Activity (Rattus norvegicus [47]) of the same molecule?
Answer: 0%

Question: And the Activity (Rattus norvegicus [48])?
Answer: 0%

Question: What about the Activity (Rattus norvegicus [49]) of the same molecule?
Answer: 17%
